Assay results published in patent US4562205A, “Derivatives of 2-aminoacetic acid” (Continental Pharma Inc., priority 1983, dated 1985).
Where two headings read alike, the source gives them in different places.

Experiments:
mice [1] = experiment: in vivo; conditions: oral, mice
Description: (§1) In further pharmacological tests the acute toxicity and the effect on behaviour have been examined. The effect on behaviour has been studied using a method derived from the one of S. Irvin [Gordon Res. Conf. on Medicinal Chemistry, p. 1933 (1959) as cited by R. A. Turner (Screening Methods in Pharmacology, Acad. Press, 1965, Chapter III, pages 22-34)].
(§2) No further testing has been made when a dose has been reached at which no abnormal behaviour or toxicity has been observed. […] The deaths were registered for 14 days following the treatment.

in vivo [2] = conditions: mouse, in vivo, po
Description: as §1, §2

mice [3] = experiment: in vivo; conditions: mice; for deaths: 3000 mg/kg per os
Description: as §1, §2
(§3) The LD50 value, i.e. the dose expressed in mg/kg which is lethal for 50% of the animals, has been calculated according to the Litchfield and Wilcoxon method [J. Pharmacol. Exp. Ther., 96, 99 (1949)].

in vivo [4] = conditions: mouse, in vivo, po; remark: listed apart in the source
Description: as §1, §2, §3

[5] = tested on: convulsions induced by bicuculline in mice; experiment: Anti-convulsant activity against bicuculline-induced convulsions (protection against tonic extension); format: in vivo, mice (CDl-Charles River); conditions: for potency compared with reference (in words): ED50 comparison, bicuculline test; for ED50: Mus musculus, 3 h, read-out: ED50 (dose providing protection against tonic extension of 50% of the animals); for % of protection (against tonic extension): 10 mg/kg, 20 mice
Procedure: The compounds tested, 2-pentanoylaminoacetic acid (compound I), sodium 2-pentanoylaminoacetate (compound II) or sodium valproate (a generally accepted reference substance), have been administered orally to 20 mice (CDl-Charles River) at a dose of 10 mg/kg as a suspension in a 1% tragacanth gum mucilage. Administration has been done by means of an intragastric tube.
Three hours later, bicuculline has been administered at a dose of 0,7 mg/kg by intravenous injection in the lateral vein of the tail.
The anti-convulsant activity of the compounds has been further evaluated, using the technique described hereinabove, by examining the effect at different doses. From the experimental data, the ED50 value has been calculated, i.e. the effective dose (mg/kg) providing protection against tonic extension of 50% of the animals.

[6] = oral, bicuculline 0,7 mg/kg i.v. three hours later
[7] = oral, different doses, bicuculline 0,7 mg/kg i.v. three hours later, mice

Q: For `CCCCC(=O)NCC(=O)[O-].[Na+]`, which “toxicity and effect on behaviour (in words)” value (mice [1]) is on record?
A: Its value is “very weak”.

Q: And the “TI-B (MTD/ED50)” value (mice [1]; therapeutical index)?
A: Its value is > 326.

Q: And the MTD at 336 h (in vivo [2])?
A: The MTD at 336 h was ≥ 3000 mg/kg.

Q: What about the deaths (mice [3]) of the same compound?
A: Its deaths is “no deaths”.

Q: And the “TI-A (LD50/ED50)” value (mice [3]; therapeutical index, oral)?
A: The value was > 326.

Q: And the LD50 at 336 h (in vivo [4])?
A: Its LD50 at 336 h is > 3000 mg/kg.

Q: What about the “potency compared with reference (in words)” value ([5]; mice) of the same compound?
A: Its value is “more potent”.

Q: What about the ED50 ([5]; po) of the same compound?
A: Its ED50 is 9.2 mg/kg.

Q: And the “% of protection (against tonic extension)” value (“% of protection” below) [5, 6]?
A: Its value is 55%.

Q: With `CCCCC(=O)NCC(=O)O` [compound I, 2-pentanoylaminoacetic acid] as the compound, how does the “toxicity and effect on behaviour (in words)” value (mice [1]) read?
A: The value was “very weak”.

Q: What about the MTD at 336 h (in vivo [2]) of the same compound?
A: Its MTD at 336 h is ≥ 3000 mg/kg.

Q: What about the selectivity ratio (in vivo [2]; TI-B (MTD/ED50), therapeutical index, mice) of the same compound?
A: Its selectivity ratio is > 280.

Q: What about the deaths (mice [3]) of the same compound?
A: Its deaths is “no deaths”.

Q: What about the LD50 at 336 h (in vivo [4]) of the same compound?
A: The LD50 at 336 h was > 3000 mg/kg.

Q: What about the “potency compared with reference (in words)” value ([5]; mice) of the same compound?
A: Its value is “more potent”.

Q: What about the ED50 [5, 7] of the same compound?
A: Its ED50 is 10.7 mg/kg.

Q: And the “anti-convulsant activity (in words)” value ([5]; convulsions induced by bicuculline in mice)?
A: The value was “potent anti-convulsant activity”.

Q: What about the “% of protection” value [5, 6] of the same compound?
A: Its value is 55%.

Q: With `CCCC(CCC)C(=O)[O-].[Na+]` [sodium valproate, reference compound] as the compound, how does the ED50 [5, 7] read?
A: The ED50 was 29 mg/kg.

Q: And the “% of protection” value [5, 6]?
A: The value was 40%.
